Data reported in patent US20250289827A1, “MORPHIC FORMS OF A MUTANT BRAF DEGRADER AND METHODS OF MANUFACTURE THEREOF” (C4 THERAPEUTICS, INC., priority 2022, published 2025).

Tests used:
[1] = Crystallization by addition of anti-solvent; format: physicochemical
Method: About 50 mg of Compound 1 Form A was dissolved in the minimal amount of selected good solvents at ambient temperature (about 20-25° C.). Obtained solutions were filtered through a 0.45 μm syringe membrane filter. […] Precipitates were collected by centrifugation filtration through a 0.45 μm nylon membrane filter at 14,000 rpm. Solid parts (wet cakes) were investigated by XRPD.

[2] = Equilibration with solvents at 25° C. for 4 weeks (XRPD); format: physicochemical
Method: About 50 mg of Compound 1 free Form A was equilibrated in 0.1-1 mL of solvents at 25° C. for 4 weeks with a stirring bar on a magnetic stirring plate at a rate of 300 rpm. The obtained suspensions were filtered through a 0.45 μm nylon membrane filter by centrifugation at 14,000 rpm. Solid parts (wet cakes) were investigated by XRPD.

[3] = test system: HT-29 human colorectal cancer cell derived xenografts (CDX); test: Efficacy in HT-29 CDX model of colorectal cancer; format: in vivo, BALB/c nude mice
Description: The endpoint for each individual mouse was reached when the mouse weight decreased by 20%.

[4] = Acetone (3) / anti-solvent Heptane (2) mL
[5] = Acetone/water (v:v = 86:14) a.w. = 0.6
[6] = Acetonitrile/water (v:v = 96:4) a.w. = 0.6
[7] = DMF/water (v:v = 73:27) a.w. = 0.6
[8] = Methanol/water (v:v = 69:31) a.w. = 0.6
[9] = THF/water (v:v = 82:18) a.w. = 0.9
[10] = THF/water (v:v = 92:8) a.w. = 0.6

CCN(C)S(=O)(=O)Nc1ccc(F)c(Oc2ccc3ncn([C@H]4COC5(CCN(C(=O)CC6(O)CCN(c7cc8c(cc7F)c(N7CCC(=O)NC7=O)nn8C)CC6)CC5)C4)c(=O)c3c2)c1C#N [Compound 1 Form A]
Results (After 2 hours) ([1]; 1,4-Dioxane (0.1) / anti-solvent Water (0.2) mL): Sticky material | Results (After 2 hours) [1, 4]: Low crystallinity | XRPD [1, 4]: Form A | Results (After 2 hours) ([1]; DCM (0.2) / anti-solvent Heptane (0.2) mL): Sticky material | Results (After 2 hours) ([1]; THF (0.2) / anti-solvent Water (0.2) mL): Oil material | Comments ([2]; 1,4-Dioxane/heptane (v:v = 1:1)): Sticky material | Comments ([2]; 2-MeTHF): Medium crystallinity | XRPD (solid form after equilibration) ([2]; 2-MeTHF): Form C | Comments ([2]; Acetone): Medium crystallinity | XRPD (solid form after equilibration) ([2]; Acetone): Form B | XRPD (solid form after equilibration) ([2]; Acetone/water (v:v = 36:64) a.w. = 0.9): Almost amorphous | Comments [2, 5]: Clear solution | Comments: concentration of clear solution [2, 5]: (about 500 mg/mL) | Comments ([2]; Acetonitrile): Medium crystallinity | XRPD (solid form after equilibration) ([2]; Acetonitrile): Form B | Comments ([2]; Acetonitrile/water (v:v = 42:58) a.w. = 0.9): Sticky material | Comments (crystallinity) [2, 6]: Medium | XRPD (solid form after equilibration) [2, 6]: Form B | Comments ([2]; DCM/heptane (v:v = 1:1)): Sticky material | Comments ([2]; DCM/methanol (v:v = 1:1)): Clear solution | Comments: concentration of clear solution ([2]; DCM/methanol (v:v = 1:1)): (about 500 mg/mL) | Comments ([2]; DMF): Clear solution | Comments: concentration of clear solution ([2]; DMF): (about 500 mg/mL) | XRPD (solid form after equilibration) ([2]; DMF/water (v:v = 30:70) a.w. = 0.9): Almost amorphous | Comments [2, 7]: Clear solution | Comments: concentration of clear solution [2, 7]: (about 500 mg/mL) | XRPD (solid form after equilibration) ([2]; DMSO/water (v:v = 23:77) a.w. = 0.9): Almost amorphous | XRPD (solid form after equilibration) ([2]; DMSO/water (v:v = 57:43) a.w. = 0.6): Almost amorphous | Comments ([2]; Ethanol): Low crystallinity | XRPD (solid form after equilibration) ([2]; Ethanol): Form A | Comments ([2]; Ethyl acetate): Medium crystallinity | XRPD (solid form after equilibration) ([2]; Ethyl acetate): Form C* | Comments ([2]; Isopropanol): Low crystallinity | XRPD (solid form after equilibration) ([2]; Isopropanol): Form A | Comments ([2]; Isopropyl acetate): Low crystallinity | XRPD (solid form after equilibration) ([2]; Isopropyl acetate): Form A | Comments ([2]; MTBE): Low crystallinity | XRPD (solid form after equilibration) ([2]; MTBE): Form A | Comments ([2]; Methanol): Low crystallinity | XRPD (solid form after equilibration) ([2]; Methanol): Form B | XRPD (solid form after equilibration) ([2]; Methanol/water (v:v = 22:78) a.w. = 0.9): Almost amorphous | Comments [2, 8]: Low crystallinity | XRPD (solid form after equilibration) [2, 8]: Form B | Comments ([2]; Methyl ethyl ketone): Medium crystallinity | XRPD (solid form after equilibration) ([2]; Methyl ethyl ketone): Form B | Comments ([2]; THF/heptane (v:v = 1:1)): Medium crystallinity | XRPD (solid form after equilibration) ([2]; THF/heptane (v:v = 1:1)): Form B | Comments [2, 9]: Clear solution | Comments: concentration of clear solution [2, 9]: (about 500 mg/mL) | Comments [2, 10]: Clear solution | Comments: concentration of clear solution [2, 10]: (about 500 mg/mL) | Comments ([2]; Toluene): Low crystallinity | XRPD (solid form after equilibration) ([2]; Toluene): Form A

CCN(C)S(=O)(=O)Nc1ccc(F)c(Oc2ccc3ncn([C@H]4COC5(CCN(C(=O)CC6(O)CCN(c7cc8c(cc7F)c(N7CCC(=O)NC7=O)nn8C)CC6)CC5)C4)c(=O)c3c2)c1C#N [Compound 1, (3R)-3-[6-[2-cyano-3-[[ethyl(methyl)sulfamoyl]amino]-6-fluorophenoxy]-4-oxoquinazolin-3-yl]-8-[2-[1-[3-(2,4-dioxo-1,3-diazinan-1-yl)-5-fluoro-1-methylindazol-6-yl]-4-hydroxypiperidin-4-yl]acetyl]-1-oxa-8-azaspiro[4.5]decane]
Tumor response at end of study ([3]; 10 mg/kg PO BID plus cetuximab 11 mg/kg IP Q3D): tumor regression | Tumor response at end of study ([3]; 10 mg/kg PO BID, without cetuximab): tumor regression
